Measurements published in article PMC9851200, “Multiparameter phenotypic screening for endogenous TFEB and TFE3 translocation identifies novel chemical series modulating lysosome function” (Autophagy, 2022).

Assays:
Assay type in all cases: binding
[1] = target: kinases (KINOMEscan panel) (Homo sapiens, UniProt Q9P286); details: kinase PAK5; NEW KINOMEscan
[2] = target: T1, kinases (KINOMEscan panel) (Homo sapiens, UniProt O00141); details: kinase SGK1; NEW KINOMEscan
T1 sequence (O00141 1-431): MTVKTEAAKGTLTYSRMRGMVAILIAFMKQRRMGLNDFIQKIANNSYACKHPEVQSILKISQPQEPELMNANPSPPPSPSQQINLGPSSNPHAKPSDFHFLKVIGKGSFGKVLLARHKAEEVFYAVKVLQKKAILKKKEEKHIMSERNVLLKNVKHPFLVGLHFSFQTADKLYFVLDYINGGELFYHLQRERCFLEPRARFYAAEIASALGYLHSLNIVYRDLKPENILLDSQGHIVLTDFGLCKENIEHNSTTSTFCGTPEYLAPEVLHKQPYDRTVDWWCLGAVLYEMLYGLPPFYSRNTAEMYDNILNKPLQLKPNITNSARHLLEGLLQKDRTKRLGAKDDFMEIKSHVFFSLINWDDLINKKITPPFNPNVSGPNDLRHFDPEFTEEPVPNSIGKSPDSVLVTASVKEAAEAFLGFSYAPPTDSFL

[3] = target: kinases (KINOMEscan panel) (Homo sapiens, UniProt P36888, R834Q); details: kinase FLT3(R834Q); NEW KINOMEscan
[4] = target: kinases (KINOMEscan panel) (Homo sapiens, UniProt P36888, D835Y); details: kinase FLT3(D835Y); NEW KINOMEscan
[5] = target: T2, kinases (KINOMEscan panel) (Homo sapiens, UniProt Q56UN5); details: NEW KINOMEscan
T2 sequence (Q56UN5 1-1328): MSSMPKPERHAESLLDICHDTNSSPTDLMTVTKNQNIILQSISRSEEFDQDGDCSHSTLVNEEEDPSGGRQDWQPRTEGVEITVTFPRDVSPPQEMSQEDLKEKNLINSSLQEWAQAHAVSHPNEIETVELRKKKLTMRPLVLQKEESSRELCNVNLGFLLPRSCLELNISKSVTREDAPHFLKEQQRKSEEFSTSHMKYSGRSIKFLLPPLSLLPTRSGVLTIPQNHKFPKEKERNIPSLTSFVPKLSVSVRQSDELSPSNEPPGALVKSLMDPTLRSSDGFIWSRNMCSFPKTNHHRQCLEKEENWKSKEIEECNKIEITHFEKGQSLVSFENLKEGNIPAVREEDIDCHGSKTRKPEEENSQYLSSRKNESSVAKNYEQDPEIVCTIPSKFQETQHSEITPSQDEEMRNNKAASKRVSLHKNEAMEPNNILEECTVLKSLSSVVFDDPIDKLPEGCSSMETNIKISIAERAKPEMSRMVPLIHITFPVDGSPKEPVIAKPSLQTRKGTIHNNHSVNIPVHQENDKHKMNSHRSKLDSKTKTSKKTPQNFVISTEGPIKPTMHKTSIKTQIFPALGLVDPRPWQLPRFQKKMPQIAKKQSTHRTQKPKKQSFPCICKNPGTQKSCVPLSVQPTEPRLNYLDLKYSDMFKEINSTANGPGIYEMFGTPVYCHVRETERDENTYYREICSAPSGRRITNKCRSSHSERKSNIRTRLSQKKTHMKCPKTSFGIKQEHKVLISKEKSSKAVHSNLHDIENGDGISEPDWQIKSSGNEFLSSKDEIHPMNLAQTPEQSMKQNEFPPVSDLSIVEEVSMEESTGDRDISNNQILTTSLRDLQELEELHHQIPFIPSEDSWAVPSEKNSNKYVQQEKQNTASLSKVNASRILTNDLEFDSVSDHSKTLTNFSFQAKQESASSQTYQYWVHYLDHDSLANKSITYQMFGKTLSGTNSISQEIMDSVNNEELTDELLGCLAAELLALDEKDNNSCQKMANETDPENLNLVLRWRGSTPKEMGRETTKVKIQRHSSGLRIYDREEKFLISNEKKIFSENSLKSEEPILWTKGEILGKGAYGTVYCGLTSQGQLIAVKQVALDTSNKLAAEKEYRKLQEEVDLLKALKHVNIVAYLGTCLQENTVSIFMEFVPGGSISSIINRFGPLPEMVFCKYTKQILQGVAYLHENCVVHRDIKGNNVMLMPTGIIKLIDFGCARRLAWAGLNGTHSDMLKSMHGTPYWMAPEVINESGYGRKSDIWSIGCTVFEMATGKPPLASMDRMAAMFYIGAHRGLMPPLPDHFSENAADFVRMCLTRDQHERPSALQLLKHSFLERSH

[6] = target: T3, kinases (KINOMEscan panel) (Homo sapiens, UniProt Q13873); details: kinase BMPR2; NEW KINOMEscan
T3 sequence (Q13873 27-1038): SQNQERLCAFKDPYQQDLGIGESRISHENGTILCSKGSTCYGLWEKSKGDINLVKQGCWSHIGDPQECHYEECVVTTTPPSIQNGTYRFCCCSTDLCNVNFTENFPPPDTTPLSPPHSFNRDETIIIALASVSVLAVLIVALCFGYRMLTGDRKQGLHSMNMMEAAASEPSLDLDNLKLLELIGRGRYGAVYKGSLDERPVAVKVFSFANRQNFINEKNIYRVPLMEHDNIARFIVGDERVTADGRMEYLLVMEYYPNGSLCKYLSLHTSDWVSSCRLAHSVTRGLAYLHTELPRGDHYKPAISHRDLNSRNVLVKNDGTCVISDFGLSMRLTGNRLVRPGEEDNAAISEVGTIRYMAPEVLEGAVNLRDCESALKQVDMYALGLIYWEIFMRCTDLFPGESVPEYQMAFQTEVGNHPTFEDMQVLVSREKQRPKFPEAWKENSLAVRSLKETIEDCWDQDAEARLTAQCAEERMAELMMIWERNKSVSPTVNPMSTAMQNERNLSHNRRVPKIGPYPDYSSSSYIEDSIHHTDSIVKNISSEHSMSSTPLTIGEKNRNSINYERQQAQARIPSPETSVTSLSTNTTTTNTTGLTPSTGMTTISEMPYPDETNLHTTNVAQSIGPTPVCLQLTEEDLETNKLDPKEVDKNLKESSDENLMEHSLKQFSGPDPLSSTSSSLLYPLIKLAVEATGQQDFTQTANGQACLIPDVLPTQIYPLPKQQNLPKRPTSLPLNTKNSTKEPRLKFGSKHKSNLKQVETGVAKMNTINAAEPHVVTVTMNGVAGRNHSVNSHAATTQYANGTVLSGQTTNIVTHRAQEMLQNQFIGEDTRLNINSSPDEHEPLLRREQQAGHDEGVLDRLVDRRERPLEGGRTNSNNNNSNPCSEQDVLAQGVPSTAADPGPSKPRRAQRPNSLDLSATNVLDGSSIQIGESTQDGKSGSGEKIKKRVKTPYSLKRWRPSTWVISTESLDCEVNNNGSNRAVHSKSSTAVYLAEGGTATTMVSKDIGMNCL

Sequence of kinases (KINOMEscan panel) (Homo sapiens, UniProt Q9P286) (Q9P286 whole entry): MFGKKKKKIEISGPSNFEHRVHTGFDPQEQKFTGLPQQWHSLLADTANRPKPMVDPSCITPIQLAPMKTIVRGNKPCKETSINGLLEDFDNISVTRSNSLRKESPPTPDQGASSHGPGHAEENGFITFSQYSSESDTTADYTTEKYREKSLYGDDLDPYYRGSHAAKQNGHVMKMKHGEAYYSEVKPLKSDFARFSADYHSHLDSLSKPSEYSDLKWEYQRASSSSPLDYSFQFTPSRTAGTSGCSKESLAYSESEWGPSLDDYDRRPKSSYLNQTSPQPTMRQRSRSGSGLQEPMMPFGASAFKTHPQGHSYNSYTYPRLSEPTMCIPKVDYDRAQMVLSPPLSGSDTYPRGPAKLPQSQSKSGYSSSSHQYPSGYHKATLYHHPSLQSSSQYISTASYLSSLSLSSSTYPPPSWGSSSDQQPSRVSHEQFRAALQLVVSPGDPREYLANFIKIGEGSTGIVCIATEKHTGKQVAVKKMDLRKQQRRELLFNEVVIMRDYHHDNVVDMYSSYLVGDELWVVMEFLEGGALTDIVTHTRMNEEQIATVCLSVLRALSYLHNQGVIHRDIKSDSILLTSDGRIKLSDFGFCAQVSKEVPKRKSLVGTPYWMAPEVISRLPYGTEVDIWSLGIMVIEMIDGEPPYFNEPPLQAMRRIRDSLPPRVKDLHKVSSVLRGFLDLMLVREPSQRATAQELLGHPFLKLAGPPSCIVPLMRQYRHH

| Structure (SMILES) | KINOMEscan PAK5 [1] | KINOMEscan SGK1 [2] | KINOMEscan FLT3(R834Q) [3] | KINOMEscan FLT3(D835Y) [4] | KINOMEscan MAP3K19 [5] | KINOMEscan BMPR2 [6] |
| --- | --- | --- | --- | --- | --- | --- |
| Cc1cccc(-c2nc(Nc3ccc4nn(C)cc4c3)c3ccccc3n2)n1 [NK167] | 0 | 0 | 0 | 0 | 0 | 0 |
| Cc1cccc(-c2nc(N(C)c3ccc4ncsc4c3)c3ccccc3n2)n1 [NK-161] | 2 | 14 | 2 | 3 | 0 | 18 |
